Data from PubChem BioAssay (NCI).
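Tested at 5 concentrations; 48 h exposure; 96-well plates; endpoints linearly interpolated, else capped at highest concentration. TGI denotes the concentration required for complete inhibition of growth.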

Key:
Experiment in all cases: growth of human tumour cells (NCI), 48 h
EKVX NSCLC = system: EKVX NSCLC
IGROV1 ovarian = system: IGROV1 ovarian
SK-MEL-28 melanoma = system: SK-MEL-28 melanoma
NCI/ADR-RES ovarian = system: NCI/ADR-RES ovarian
MDA-MB-435 = system: MDA-MB-435
UACC-257 melanoma = system: UACC-257 melanoma
OVCAR-3 ovarian = system: OVCAR-3 ovarian
SW-620 colon = system: SW-620 colon
SF-268 CNS = system: SF-268 CNS
HOP-92 NSCLC = system: HOP-92 NSCLC
U251 CNS = system: U251 CNS
BT-549 breast = system: BT-549 breast
TK-10 renal = system: TK-10 renal
CAKI-1 renal = system: CAKI-1 renal
COLO 205 colon = system: COLO 205 colon
OVCAR-4 ovarian = system: OVCAR-4 ovarian
SK-MEL-2 melanoma = system: SK-MEL-2 melanoma
NCI-H460 lung = system: NCI-H460 lung
K-562 leukemia = system: K-562 leukemia
UACC-62 melanoma = system: UACC-62 melanoma
SNB-75 CNS = system: SNB-75 CNS
NCI-H522 lung = system: NCI-H522 lung
HCC-2998 colon = system: HCC-2998 colon
LOX IMVI melanoma = system: LOX IMVI melanoma
SF-539 CNS = system: SF-539 CNS
MALME-3M melanoma = system: MALME-3M melanoma
HCT-116 colon = system: HCT-116 colon
KM12 colon = system: KM12 colon
A549 NSCLC = system: A549 NSCLC
SNB-19 CNS = system: SNB-19 CNS
DU-145 prostate = system: DU-145 prostate
MDA-MB-231 breast = system: MDA-MB-231 breast
SK-MEL-5 melanoma = system: SK-MEL-5 melanoma
ACHN renal = system: ACHN renal
RXF 393 renal = system: RXF 393 renal
HS 578T breast = system: HS 578T breast
OVCAR-8 ovarian = system: OVCAR-8 ovarian
CCRF-CEM leukemia = system: CCRF-CEM leukemia
HT29 colon = system: HT29 colon
A498 renal = system: A498 renal
RPMI-8226 leukemia = system: RPMI-8226 leukemia
M14 melanoma = system: M14 melanoma
MCF7 breast = system: MCF7 breast
PC-3 prostate = system: PC-3 prostate
OVCAR-5 ovarian = system: OVCAR-5 ovarian
UO-31 renal = system: UO-31 renal
HCT-15 colon = system: HCT-15 colon
NCI-H226 lung = system: NCI-H226 lung
SF-295 CNS = system: SF-295 CNS
T-47D breast = system: T-47D breast
786-0 renal = system: 786-0 renal
NCI-H23 lung = system: NCI-H23 lung
MDA-N = system: MDA-N
SN12C renal = system: SN12C renal
MOLT-4 leukemia = system: MOLT-4 leukemia

Measured: TGI

Cc1ccc(OCCn2cc(Nc3ccccc3)c(=O)n(CCOc3ccc(C)cc3)c2=O)cc1
> 100 µM: EKVX NSCLC | IGROV1 ovarian | SK-MEL-28 melanoma | NCI/ADR-RES ovarian | MDA-MB-435 | UACC-257 melanoma | OVCAR-3 ovarian | SW-620 colon | SF-268 CNS | HOP-92 NSCLC | U251 CNS | BT-549 breast | TK-10 renal | CAKI-1 renal | COLO 205 colon | OVCAR-4 ovarian | SK-MEL-2 melanoma | NCI-H460 lung | K-562 leukemia | UACC-62 melanoma | SNB-75 CNS | NCI-H522 lung | HCC-2998 colon | LOX IMVI melanoma | SF-539 CNS | MALME-3M melanoma | HCT-116 colon | KM12 colon | A549 NSCLC | SNB-19 CNS | DU-145 prostate | MDA-MB-231 breast | SK-MEL-5 melanoma | ACHN renal | RXF 393 renal | HS 578T breast | OVCAR-8 ovarian | CCRF-CEM leukemia | HT29 colon | A498 renal | RPMI-8226 leukemia | M14 melanoma | MCF7 breast | PC-3 prostate | OVCAR-5 ovarian | UO-31 renal | HCT-15 colon | NCI-H226 lung | SF-295 CNS | T-47D breast | 786-0 renal | NCI-H23 lung | MDA-N | SN12C renal | MOLT-4 leukemia
